One experiment deals with T1, human Aurora B kinase (Homo sapiens, UniProt Q96GD4).
T1 construct: purchased Carna 05-102
The experiment in a line: Aurora B Kinase Assay (mobility shift assay, ATP at Km). Type of experiment: biochemical. Conditions: 15 μM ATP (Km), read-out: AurB Enzymatic Activity. Here is the method: Compounds were tested by Mobility shift assay with ATP concentration at Km. The assay used human Aurora B kinase (Carna 05-102). Test compounds were prepared and diluted in DMSO in 3-fold serial dilutions to 50× of the final testing concentrations. The compounds were then further diluted to 5× by the kinase reaction buffer (50 mM HEPES pH 7.5, 0.0015% Brij-35). The enzymatic reaction for compound testing was performed in a white 384-well polypropylene plate (Corning 3573) with a total reaction volume of 25 μl containing 9 nM Aurora B, 3 μM peptide substrate FAM-P21 (GL Biochem 116370), and 15 μM ATP (Sigma A7699-1G). The assay started with loading Aurora B diluted in kinase reaction buffer to wells, followed by addition of equal volume of 5× compounds for 15-min incubation at the room temperature for pre-treatment. The enzymatic reaction was initiated by addition of mixture of the substrate and ATP prepared in kinase reaction buffer. After incubation at 28° C. for one hour, 25 μl of stopper buffer (a mixture of 100 mM HEPES pH 7.5 buffer, 0.015% Brij-35, 50 mM EDTA and 0.2% of coating reagent 3 (Cliper Lifesciences)). After 30 minutes of incubation at room temperature, the plate was read in a Caliper. Percent of control was calculated as the percentage of compound-treated vs 2% DMSO vehicle-treated. The dose-response curves were generated and the IC50 values were calculated by nonlinear sigmoid curve fitting using XLFit.

A further experiment deals with BAF3 cells. The experiment in a line: BAF3 Cell Proliferation Assay (CellTiter-Glo, without RET driven, IL-3). It counts as cell-based. The following applies: Mus musculus; growth inhibition in BAF3 cells, 72 hours, with IL-3; read-out: BAF3 Cellular Activity. Here is the method: Compounds disclosed herein were tested for the inhibition BAF3 cells proliferation without RET driven by CellTiter-Glo assay. In this assay, a complete media was prepared by adding 10% fetal bovine serum and 1 ng/ml IL-3 to RPMI-1640 medium (Life technology) for BAF3 cells. BAF3 cells were added to each of 88 wells of a 96 well plate at a seeding density of 2,000 cells/well/95 μL. The cells were allowed to attach to the plate by incubating at 37° C. for 24 hours. The compound was dissolved in DMSO (SIGMA). A solution of test compound was prepared in complete media by serial dilution to obtain the following concentrations: 200 μM, 66.7 μM, 22.2 μM, 7.4 μM, 2.5 μM, 0.82 μM, 0.27 μM, 0.091 μM and […]. The test compound solution (5 μL) was added to each of 80 cell-containing wells. The final concentrations of the compound were following: 10 μM, 3.33 μM, 1.11 μM, 0.37 μM, 0.12 μM, 0.041 μM, 0.014 μM, 0.0046 μM and 0.0015 μM. The final concentration of DMSO is 0.1%. To the 8 remaining cell-containing wells, only complete media (containing 0.1% DMSO) was added to form a control group in order to measure maximal proliferation. To the remaining 8 empty wells, complete media was added to for a vehicle control group in order to measure background. The plates were incubated at 37° C. for 72 hours. 50 μl of CellTiter-Glo® Reagent was added to each well. The contents were mixed for 2 minutes on an orbital shaker to induce cell lysis, and then were incubated at room temperature for 10 minutes to stabilize luminescent signal. Luminescence was recorded on Paradigm. Cell viability (CV %) was calculated relative to vehicle (DMSO) treated control wells. The IC50 was calculated using GraphPad Prism.

The next experiment concerns the target T2, BAF3-KIF5B-RET cells (Homo sapiens, UniProt P07949).
T2 construct: fused on or other part: P33176 (Kinesin-1 heavy chain)
As to the kind of experiment: BAF3-KIF5B-RET Cell Proliferation Assay (CellTiter-Glo). It counts as cell-based. Conditions: growth inhibition, 72 hours; Table 2; read-out: BA/F3-KIF5B-RET Cellular activity. Here is the method: Compounds disclosed herein were tested for the inhibition of RET by a cancer cell proliferation assay commonly known as CellTiter-Glo assay. In this assay, a complete media was prepared by adding 10% fetal bovine serum to RPMI-1640 medium (Life technology) for RET-driven cancer cells (BAF3-FIF5B-RET, Ba/F3-KIF5B-RET-G810R, Ba/F3-TEL-RET-M918T or Ba/F3-KIF5B-RET-V804M). Individual RET-driven type of cells were added to each of 88 wells of a 96 well plate at a seeding density of 2,000 cells/well/95 μL. The cells were allowed to attach to the plate by incubating at 37° C. for 24 hours. The compound was dissolved in DMSO (SIGMA). A solution of test compound was prepared in complete media by serial dilution to obtain the following concentrations: 20 μM, 6.67 μM, 2.22 μM, 0.74 μM, 0.25 μM, 0.082 μM, 0.027 μM, 0.0091 μM and 0.0030 μM. The test compound solution (5 μL) was added to each of 80 cell-containing wells. The final concentrations of the compound were following: 1 μM, 0.33 μM, 0.11 μM, 0.037 μM, 0.012 μM, 0.0041 μM, 0.0014 μM, 0.00046 μM and 0.00015 μM. The final concentration of DMSO is 0.1%. To the 8 remaining cell-containing wells, only complete media (containing 0.1% DMSO) was added to form a control group in order to measure maximal proliferation. To the remaining 8 empty wells, complete media was added to for a vehicle control group in order to measure background. The plates were incubated at 37° C. for 72 hours. 50 μl of CellTiter-Glo® Reagent was added to each well. Mix contents for 2 minutes on an orbital shaker to induce cell lysis. Incubate at room temperature for 10 minutes to stabilize luminescent signal. Record luminescence on Paradigm. Cell viability (CV %) was calculated relative to vehicle (DMSO) treated control wells. The IC50 was calculated using GraphPad Prism.
In general terms: ATP-based viability assays read luminescence as a measure of living cells.

In another experiment the target is T3, human RET kinase (Homo sapiens, UniProt P07949).
T3 construct: purchased Carna 08-159
T3 sequence (P07949 29-1114): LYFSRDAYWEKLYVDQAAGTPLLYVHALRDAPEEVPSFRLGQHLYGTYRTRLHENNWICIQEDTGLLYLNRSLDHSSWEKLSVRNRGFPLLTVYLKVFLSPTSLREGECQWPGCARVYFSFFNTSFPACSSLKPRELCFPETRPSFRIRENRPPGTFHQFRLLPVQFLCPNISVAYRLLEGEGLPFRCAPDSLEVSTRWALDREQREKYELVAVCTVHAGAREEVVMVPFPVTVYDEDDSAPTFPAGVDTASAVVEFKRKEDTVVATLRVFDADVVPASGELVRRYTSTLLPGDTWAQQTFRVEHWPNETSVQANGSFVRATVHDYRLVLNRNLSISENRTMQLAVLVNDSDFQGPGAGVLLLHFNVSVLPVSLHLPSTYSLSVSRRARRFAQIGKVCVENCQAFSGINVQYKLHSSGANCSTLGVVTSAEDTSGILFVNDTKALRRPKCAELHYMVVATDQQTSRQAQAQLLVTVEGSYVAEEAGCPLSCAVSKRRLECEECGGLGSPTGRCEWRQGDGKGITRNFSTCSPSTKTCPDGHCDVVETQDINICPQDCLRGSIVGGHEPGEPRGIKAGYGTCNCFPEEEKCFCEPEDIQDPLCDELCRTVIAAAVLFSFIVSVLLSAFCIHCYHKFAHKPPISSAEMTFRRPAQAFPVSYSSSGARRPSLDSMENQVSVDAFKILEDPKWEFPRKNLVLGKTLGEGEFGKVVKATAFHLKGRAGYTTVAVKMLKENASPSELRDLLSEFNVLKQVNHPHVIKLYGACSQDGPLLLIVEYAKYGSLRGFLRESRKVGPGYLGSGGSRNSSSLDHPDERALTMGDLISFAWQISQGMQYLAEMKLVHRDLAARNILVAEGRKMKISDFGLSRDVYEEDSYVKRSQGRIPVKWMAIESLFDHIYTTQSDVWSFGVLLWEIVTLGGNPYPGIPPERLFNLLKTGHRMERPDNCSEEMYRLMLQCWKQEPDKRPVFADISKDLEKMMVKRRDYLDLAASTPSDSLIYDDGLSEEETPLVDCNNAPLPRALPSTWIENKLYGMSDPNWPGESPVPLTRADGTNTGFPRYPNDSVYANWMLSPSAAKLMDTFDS
The experiment in a line: RET Kinase Assay (mobility shift assay, ATP at Km). Type of experiment: biochemical. Conditions: 23 μM ATP (Km), read-out: RET Enzymatic Activity. As for the experimental part:
Compounds were tested by Mobility shift assay with ATP concentration at Km. The assay used human RET kinase (Carna 08-159). Test compounds were prepared and diluted in DMSO in 3-fold serial dilutions to 50× of the final testing concentrations. The compounds were then further diluted to 5× by the kinase reaction buffer (50 mM HEPES pH 7.5, 0.0015% Brij-35). The enzymatic reaction for compound testing was performed in a white 384-well polypropylene plate (Corning 3573) with a total reaction volume of 25 μl containing 7 nM RET, 3 μM peptide substrate FAM-P2 (GL Biochem 112394), and 23 μM ATP (Sigma A7699-1G). The assay started with loading RET diluted in kinase reaction buffer to wells, followed by addition of equal volume of 5× compounds for 15-min incubation at the room temperature for pre-treatment. The enzymatic reaction was initiated by addition of mixture of the substrate and ATP prepared in kinase reaction buffer. After incubation at 28° C. for one hour, 25 μl of stopper buffer (a mixture of 100 mM HEPES pH 7.5 buffer, 0.015% Brij-35, 50 mM EDTA and 0.2% of coating reagent 3 (Cliper Lifesciences)). After 30 minutes of incubation at room temperature, the plate was read in a Caliper. Percent of control was calculated as the percentage of compound-treated vs 2% DMSO vehicle-treated. The dose-response curves were generated and the IC50 values were calculated by nonlinear sigmoid curve fitting using XLFit.

pIC50: −log10 of the molar value.

T2 sequence (P07949 whole entry, change not shown, the tested form may be a part): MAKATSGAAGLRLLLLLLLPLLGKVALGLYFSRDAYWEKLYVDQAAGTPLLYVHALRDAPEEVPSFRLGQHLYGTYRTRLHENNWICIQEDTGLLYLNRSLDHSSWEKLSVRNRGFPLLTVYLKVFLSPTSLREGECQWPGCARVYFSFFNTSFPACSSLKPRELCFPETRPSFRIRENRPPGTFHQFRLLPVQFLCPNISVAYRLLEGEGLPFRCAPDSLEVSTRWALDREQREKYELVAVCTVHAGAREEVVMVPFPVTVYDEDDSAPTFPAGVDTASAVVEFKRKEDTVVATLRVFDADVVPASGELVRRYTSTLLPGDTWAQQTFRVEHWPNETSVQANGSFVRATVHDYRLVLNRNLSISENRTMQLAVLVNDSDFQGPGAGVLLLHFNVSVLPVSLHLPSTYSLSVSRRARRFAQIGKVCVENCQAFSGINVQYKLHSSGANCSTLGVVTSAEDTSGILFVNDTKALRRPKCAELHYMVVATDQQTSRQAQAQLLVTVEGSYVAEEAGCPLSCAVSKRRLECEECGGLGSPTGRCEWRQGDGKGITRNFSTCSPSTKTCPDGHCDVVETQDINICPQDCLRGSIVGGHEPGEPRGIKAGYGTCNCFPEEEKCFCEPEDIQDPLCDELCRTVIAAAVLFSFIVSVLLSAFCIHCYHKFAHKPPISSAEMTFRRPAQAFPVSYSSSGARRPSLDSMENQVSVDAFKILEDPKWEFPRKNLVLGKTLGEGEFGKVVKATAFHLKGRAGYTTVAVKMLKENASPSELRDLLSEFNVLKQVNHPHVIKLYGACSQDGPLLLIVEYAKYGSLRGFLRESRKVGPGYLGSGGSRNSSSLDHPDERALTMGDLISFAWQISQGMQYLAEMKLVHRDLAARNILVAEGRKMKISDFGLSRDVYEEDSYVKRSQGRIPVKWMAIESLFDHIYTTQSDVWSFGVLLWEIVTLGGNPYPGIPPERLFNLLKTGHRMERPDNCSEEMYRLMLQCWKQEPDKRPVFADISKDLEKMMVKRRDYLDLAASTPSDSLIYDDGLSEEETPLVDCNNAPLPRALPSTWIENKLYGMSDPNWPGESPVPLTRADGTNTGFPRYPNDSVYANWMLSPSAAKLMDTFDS
T1 sequence (Q96GD4 whole entry): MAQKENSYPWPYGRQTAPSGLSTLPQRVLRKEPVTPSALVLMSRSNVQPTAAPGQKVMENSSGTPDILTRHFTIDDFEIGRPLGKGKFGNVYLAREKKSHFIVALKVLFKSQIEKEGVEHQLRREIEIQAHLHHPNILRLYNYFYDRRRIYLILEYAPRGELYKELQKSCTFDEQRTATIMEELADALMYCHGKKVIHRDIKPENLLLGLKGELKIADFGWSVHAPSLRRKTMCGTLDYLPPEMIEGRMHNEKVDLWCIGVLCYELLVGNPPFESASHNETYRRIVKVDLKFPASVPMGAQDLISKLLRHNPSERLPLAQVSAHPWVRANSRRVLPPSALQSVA
T1 sequence (Q9NQS7 803-918 partner limits assumed): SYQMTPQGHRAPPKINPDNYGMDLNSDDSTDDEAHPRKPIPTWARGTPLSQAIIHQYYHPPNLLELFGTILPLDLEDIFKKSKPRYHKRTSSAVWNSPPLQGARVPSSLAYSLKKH

With `COc1ccc(CN2C3CC2CN(c2ccc(-c4cc(-c5cc(C(C)(C)O)n(C)n5)cn5ncc(C#N)c45)cn2)C3)cn1` [Example 4, 6-(5-(2-hydroxypropan-2-yl)-1-methyl-1H-pyrazol-3-yl)-4-(6-(6-((6-methoxypyridin-3-yl)methyl)-3,6-diazabicyclo[3.1.1]heptan-3-yl)pyridin-3-yl)pyrazolo[1,5-a]pyridine-3-carbonitrile], the results for the pIC50 at human Aurora B kinase, in the experiment on BAF3 cells and at human RET kinase were 6.89, 5.65 and 9.17, respectively. For the same compound, the GI50 on BAF3-KIF5B-RET cells was 0.7 nM.

As for `CCC(=O)c1ccc(-c2cc(-c3ccc(N4CC5CC(C4)N5Cc4ccc(OC)nc4)nc3)c3c(C#N)cnn3c2)nc1` [Example 37, 4-(6-(6-((6-methoxypyridin-3-yl)methyl)-3,6-diazabicyclo[3.1.1]heptan-3-yl)pyridin-3-yl)-6-(5-propionylpyridin-2-yl)pyrazolo[1,5-a]pyridine-3-carbonitrile], the results for the pIC50 on human Aurora B kinase, in the experiment on BAF3 cells and at human RET kinase were 6.86, 5.35 and 9.15, respectively. Also, the GI50 at BAF3-KIF5B-RET cells stood at 1.2 nM.

Consider `COc1ccc(CN2C3CC2CN(c2ccc(-c4cc(-c5ccc(C6(O)CC6)cn5)cn5ncc(C#N)c45)cn2)C3)cn1` [Example 11, 6-(5-(1-hydroxycyclopropyl)pyridin-2-yl)-4-(6-(6-((6-methoxypyridin-3-yl)methyl)-3,6-diazabicyclo[3.1.1]heptan-3-yl)pyridin-3-yl)pyrazolo[1,5-a]pyridine-3-carbonitrile], for which the pIC50 was 7.18 at human Aurora B kinase, 5.51 in the experiment on BAF3 cells and 9.22 on human RET kinase. The GI50 at BAF3-KIF5B-RET cells is 0.9 nM.

Take `CC(C)(O)c1ccc(-c2cc(-c3ccc(N4C[C@@H]5[C@@H](CNC(=O)c6ncccc6Cl)[C@@H]5C4)nc3)c3c(C#N)cnn3c2)nc1` [Example 5, 3-chloro-N-(((1R,5S,6s)-3-(5-(3-cyano-6-(5-(2-hydroxypropan-2-yl)pyridin-2-yl)pyrazolo[1,5-a]pyridin-4-yl)pyridin-2-yl)-3-azabicyclo[3.1.0]hexan-6-yl)methyl)picolinamide]: the pIC50 on human Aurora B kinase was 7.71; in the experiment on BAF3 cells, 6.29; at human RET kinase it was 9.10. Besides, the GI50 at BAF3-KIF5B-RET cells was 3 nM.

In the case of `COc1ccc(CN2C3CC2CN(c2ccc(-c4cc(-c5ccc(C(C)(C)O)nc5)cn5ncc(C#N)c45)cn2)C3)cn1` [Example 8, 6-(6-(2-hydroxypropan-2-yl)pyridin-3-yl)-4-(6-(6-((6-methoxypyridin-3-yl)methyl)-3,6-diazabicyclo[3.1.1]heptan-3-yl)pyridin-3-yl)pyrazolo[1,5-a]pyridine-3-carbonitrile], the pIC50 was 7.35 at human Aurora B kinase, 5.98 with BAF3 cells and 9.42 at human RET kinase. Further, the GI50 at BAF3-KIF5B-RET cells came out at 1.4 nM.

`COc1ccc(CN2C3CC2CN(c2ccc(-c4cc(-c5ncc(C(C)(C)O)cn5)cn5ncc(C#N)c45)cn2)C3)cn1` [Example 13, 6-(5-(2-hydroxypropan-2-yl)pyrimidin-2-yl)-4-(6-(6-((6-methoxypyridin-3-yl)methyl)-3,6-diazabicyclo[3.1.1]heptan-3-yl)pyridin-3-yl)pyrazolo[1,5-a]pyridine-3-carbonitrile]: the figures for the pIC50 at human Aurora B kinase, in the experiment on BAF3 cells and on human RET kinase were 6.74, 5.57 and 9.40, respectively. The GI50 on BAF3-KIF5B-RET cells worked out at 2.2 nM.

Regarding `COc1ccc(CN2C3CC2CN(c2ccc(-c4cc(-c5cnc(C(C)(C)O)nc5)cn5ncc(C#N)c45)cn2)C3)cn1` [Example 10, 6-(2-(2-hydroxypropan-2-yl)pyrimidin-5-yl)-4-(6-(6-((6-methoxypyridin-3-yl)methyl)-3,6-diazabicyclo[3.1.1]heptan-3-yl)pyridin-3-yl)pyrazolo[1,5-a]pyridine-3-carbonitrile], the pIC50 at human Aurora B kinase was 6.13; in the experiment with BAF3 cells it was below 5.00; on human RET kinase, 8.46. The GI50 on BAF3-KIF5B-RET cells was 30.5 nM.

(Values after patent US20260184726A1, “HETEROCYCLIC COMPOUNDS AS KINASE INHIBITORS, COMPOSITIONS, AND METHODS OF USE THEREOF” (JS INNOMED HOLDINGS LTD., priority 2022, published 2026).)
